The source made the active and inactive calls. The calls are words filed in the database; no cut-off is given here.
Tests used:
Homo sapiens = species: Homo sapiens; experiment: Selectivity ratio of IC50 for human ACAT2 to IC50 for human ACAT1
[1] = target: T1, Sterol O-acyltransferase 2 (Homo sapiens, UniProt O75908); experiment: Inhibition of human ACAT2
T1 sequence (O75908 whole entry): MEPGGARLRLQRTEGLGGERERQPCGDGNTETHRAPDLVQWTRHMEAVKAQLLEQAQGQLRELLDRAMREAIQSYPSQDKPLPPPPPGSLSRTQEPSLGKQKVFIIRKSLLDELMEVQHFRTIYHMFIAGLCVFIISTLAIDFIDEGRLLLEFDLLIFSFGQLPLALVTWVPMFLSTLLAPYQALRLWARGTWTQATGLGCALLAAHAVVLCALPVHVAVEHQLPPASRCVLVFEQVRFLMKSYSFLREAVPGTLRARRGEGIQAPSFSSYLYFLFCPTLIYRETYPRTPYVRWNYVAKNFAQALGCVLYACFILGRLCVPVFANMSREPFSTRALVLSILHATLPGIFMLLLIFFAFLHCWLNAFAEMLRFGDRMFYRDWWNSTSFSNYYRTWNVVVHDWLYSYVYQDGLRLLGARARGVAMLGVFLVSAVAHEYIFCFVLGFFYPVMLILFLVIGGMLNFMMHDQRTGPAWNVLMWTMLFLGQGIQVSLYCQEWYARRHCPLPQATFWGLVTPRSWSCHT

[2] = target: T2, Sterol O-acyltransferase 1 (Homo sapiens, UniProt P35610); experiment: Inhibition of human ACAT1
T2 sequence (P35610 whole entry): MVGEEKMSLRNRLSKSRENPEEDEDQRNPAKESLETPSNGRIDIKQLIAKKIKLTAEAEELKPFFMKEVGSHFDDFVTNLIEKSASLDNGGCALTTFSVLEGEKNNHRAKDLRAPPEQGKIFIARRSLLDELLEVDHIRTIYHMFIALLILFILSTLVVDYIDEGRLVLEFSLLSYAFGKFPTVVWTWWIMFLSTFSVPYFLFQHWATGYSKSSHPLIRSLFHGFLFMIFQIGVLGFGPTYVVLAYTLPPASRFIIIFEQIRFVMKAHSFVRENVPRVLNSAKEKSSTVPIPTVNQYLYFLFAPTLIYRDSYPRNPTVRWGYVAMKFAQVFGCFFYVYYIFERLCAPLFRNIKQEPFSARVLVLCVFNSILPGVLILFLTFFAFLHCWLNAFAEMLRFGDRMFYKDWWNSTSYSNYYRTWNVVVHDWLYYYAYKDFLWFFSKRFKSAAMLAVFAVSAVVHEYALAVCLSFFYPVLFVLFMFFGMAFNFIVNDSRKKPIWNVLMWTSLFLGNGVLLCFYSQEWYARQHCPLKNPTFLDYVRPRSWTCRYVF

[3] = target: T1, Sterol O-acyltransferase 2; experiment: Inhibition of ACAT2 (unknown origin)
Mus musculus [4] = experiment: Reduction in soluble amyloid beta42 in brain homogenates of C57BL/6 mouse overexpressing human APP751 with London (V717I) and Swedish ([…]) mutation administered as pellets into bloodstream; format: functional
Mus musculus [5] = experiment: Reduction in membrane/insoluble amyloid beta level in C57BL/6 mouse overexpressing human APP751 with London (V717I) and Swedish ([…]) mutation administered as pellets into bloodstream; format: functional
Mus musculus [6] = experiment: Reduction in brain cholesteryl esters in C57BL/6 mouse overexpressing human APP751 with London (V717I) and Swedish ([…]) mutation administered as pellets into bloodstream; format: functional
Mus musculus [7] = experiment: Reduction in accumulation of amyloid plaque in C57BL/6 mouse overexpressing human APP751 with London (V717I) and Swedish ([…]) mutation administered as pellets into bloodstream; format: functional
[8] = target: T3, Sterol O-acyltransferase 2 (Chlorocebus aethiops, UniProt O77759); experiment: Inhibition of African green monkey ACAT2 expressed in CHO cells assessed as reduction in [14C]CE formation using [1-14C]oleoyl-CoA measured after 6 hrs by TLC method; format: cell-based
T3 sequence (O77759 whole entry): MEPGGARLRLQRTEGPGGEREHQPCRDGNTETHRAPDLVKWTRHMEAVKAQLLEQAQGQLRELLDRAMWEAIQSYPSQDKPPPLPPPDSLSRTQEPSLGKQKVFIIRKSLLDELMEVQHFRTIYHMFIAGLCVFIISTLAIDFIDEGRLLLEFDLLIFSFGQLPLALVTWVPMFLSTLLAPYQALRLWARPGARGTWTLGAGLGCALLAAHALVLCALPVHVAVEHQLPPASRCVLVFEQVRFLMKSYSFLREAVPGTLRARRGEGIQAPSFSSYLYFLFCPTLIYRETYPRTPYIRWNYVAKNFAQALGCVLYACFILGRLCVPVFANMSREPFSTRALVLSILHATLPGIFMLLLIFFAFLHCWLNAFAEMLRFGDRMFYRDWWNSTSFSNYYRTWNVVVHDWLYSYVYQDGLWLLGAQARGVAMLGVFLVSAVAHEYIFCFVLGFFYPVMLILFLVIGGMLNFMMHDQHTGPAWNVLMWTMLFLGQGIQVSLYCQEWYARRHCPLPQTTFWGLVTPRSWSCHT

[9] = target: T3, Sterol O-acyltransferase 2; experiment: Inhibition of African green monkey ACAT2 expressed in mouse AC29 cells assessed as reduction in esterification of NBD-cholesterol preincubated for 20 mins followed by NBD-cholesterol addition measured after 6 hrs by high-performance TLC method; format: cell-based
[10] = target: T4, Sterol O-acyltransferase 2 (Homo sapiens) (UniProt O75908); experiment: Inhibition of human ACAT2 at 1 mM
T4 sequence (whole entry): T1 sequence (O75908 whole entry)

[11] = target: T5, Sterol O-acyltransferase 1 (Mus musculus) (UniProt Q61263); experiment: Inhibition of ACAT1 in TFEB knock-down mouse N9 cells assessed as autophagosome formation by measuring LC3-2 levels; format: cell-based
T5 sequence (whole entry): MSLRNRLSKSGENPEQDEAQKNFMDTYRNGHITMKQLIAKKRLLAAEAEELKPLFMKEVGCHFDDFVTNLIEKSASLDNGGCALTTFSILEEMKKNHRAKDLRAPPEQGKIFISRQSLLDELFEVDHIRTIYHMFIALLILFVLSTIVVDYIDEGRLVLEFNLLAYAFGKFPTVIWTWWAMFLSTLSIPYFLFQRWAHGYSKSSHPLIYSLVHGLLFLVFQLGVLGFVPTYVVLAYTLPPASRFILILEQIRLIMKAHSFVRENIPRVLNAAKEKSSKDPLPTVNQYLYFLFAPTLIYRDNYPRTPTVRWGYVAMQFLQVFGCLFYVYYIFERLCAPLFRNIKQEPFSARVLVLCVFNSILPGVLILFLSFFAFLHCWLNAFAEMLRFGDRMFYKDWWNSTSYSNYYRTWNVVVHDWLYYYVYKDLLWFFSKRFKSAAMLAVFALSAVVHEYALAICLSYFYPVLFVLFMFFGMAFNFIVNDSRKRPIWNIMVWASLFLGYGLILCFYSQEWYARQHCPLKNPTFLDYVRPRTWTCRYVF

[12] = target: T5, Sterol O-acyltransferase 1 (Mus musculus); experiment: Inhibition of ACAT1 in mouse N9 cells assessed as reduction in oligomeric amyloid beta 1 to 42 pretreated for 24 hrs followed by oligomeric amyloid beta 1 to 42 addition measured after 12 hrs by Western blot analysis relative to control; format: cell-based; details: concentration not given here
[13] = target: T5, Sterol O-acyltransferase 1 (Mus musculus); experiment: Inhibition of ACAT1 in mouse N9 cells at 0.1 uM measured after 8 hrs by Lyso tracker staining based flow cytometry relative to control; format: cell-based
[14] = target: T5, Sterol O-acyltransferase 1 (Mus musculus); experiment: Inhibition of ACAT1 in mouse N9 cells assessed as increase in lysosome biogenesis by measuring Lyso tracker fluorescence measured after 8 hrs by Lyso tracker staining based flow cytometry; format: cell-based
[15] = target: T5, Sterol O-acyltransferase 1 (Mus musculus); experiment: Inhibition of ACAT1 in mouse N9 cells assessed as increase in late endosomes/lysosomes volume measured after 8 hrs by Lyso tracker staining based flow cytometry relative to control; format: cell-based; details: concentration not given here
[16] = target: T5, Sterol O-acyltransferase 1 (Mus musculus); experiment: Inhibition of ACAT1 in mouse N9 cells; format: cell-based
[17] = target: T5, Sterol O-acyltransferase 1 (Mus musculus); experiment: Inhibition of ACAT1 in mouse N9 cells assessed as increase in Cys-amyloid beta 1 to 42 uptake pretreated for 8 hrs followed by Cys-amyloid beta 1 to 42 addition measured after 3 hrs by flow cytometry relative to control; format: cell-based; set-up: scale not given: the % may be the effect or the level left
[18] = target: T5, Sterol O-acyltransferase 1 (Mus musculus); experiment: Inhibition of ACAT1 in wild type mouse microglia assessed as increase in clearance of oligomeric amyloid beta at 1 uM pretreated for 24 hrs followed by oligomeric amyloid beta addition measured after 18 hrs by western blot analysis relative to control
[19] = target: T5, Sterol O-acyltransferase 1 (Mus musculus); experiment: Inhibition of ACAT1 in mouse N9 cells assessed as effect on autophagosome formation by measuring LC3-2 levels in presence of squalene synthase inhibitor CP-340868; format: cell-based
[20] = target: T5, Sterol O-acyltransferase 1 (Mus musculus); experiment: Inhibition of ACAT1 in mouse N9 cells assessed as induction of autophagy by measuring LC3-2 at 0.1 uM by Western blot analysis; format: cell-based
[21] = target: T5, Sterol O-acyltransferase 1 (Mus musculus); experiment: Inhibition of ACAT1 in mouse N9 cells assessed as increase in autophagic flux by measuring LC3-2 levels in presence of Torin-1 by Western blot analysis; format: cell-based
[22] = target: T5, Sterol O-acyltransferase 1 (Mus musculus); experiment: Inhibition of ACAT1 in mouse N9 cells assessed as increase in TFEB target genes mRNA expression measured after 8 hrs by qPCR analysis; format: cell-based
[23] = target: T5, Sterol O-acyltransferase 1 (Mus musculus); experiment: Inhibition of ACAT1 in mouse N9 cells assessed as effect on […] by measuring p62 levels in presence of Torin-1 by Western blot analysis; format: cell-based

## CCOC(=O)OC(=O)OCC [DIETHYL PYROCARBONATE]
Homo sapiens
  Ratio IC50: 4
[1]
  IC50: 170 µM
[2]
  IC50: 44 µM

## CCCCCCCCCCCCS[C@H](C(=O)Nc1cc(C)c(O)c(C)c1C)c1ccccc1 [EFLUCIMIBE]
[3]
  IC50: 0.11 µM

## CCCCCCCC[C@H](SCCCCCC)C(=O)Nc1c(SC)cc(C)nc1SC
Mus musculus [4]
  inhibition (INH): 34%
Mus musculus [5]
  inhibition (INH): 83 - 96%
Mus musculus [6]
  inhibition (INH): 86%
Mus musculus [7]
  inhibition (INH): 88 - 99%

## CCCC[C@H](C)[C@@H]1CC(=O)N[C@@H](Cc2ccccc2)C(=O)N[C@@H](C)C(=O)N[C@H](CC(C)C)C(=O)O1 [BEAUVERIOLIDE I]
[8]
  IC50: 20 µM

## CC(C)c1cccc(C(C)C)c1NC(=O)CC(=O)C(Cc1ccccc1)Cc1ccc(OC(=O)CCCCCCN2CCCCCC2=O)cc1 (centres undefined)
[9]
  IC50: 0.53 µM

## COc1ccc([C@@H](O)[C@@H](C)Oc2ccc([C@H]3O[C@H](c4ccc(O[C@H](C)[C@H](O)c5ccc6c(c5)OCO6)c(OC)c4)[C@H](C)[C@H]3C)cc2OC)cc1OC
[10]
  inhibition: 32%

## CSc1cc(C)nc(SC)c1NC(=O)CN1CCN(CCSc2nc3ccccc3[nH]2)CC1
[11]
  inhibition: Active
[12]
  inhibition: 58%
[13]
  inhibition: 80%
[14]
  inhibition: Active
[15]
  inhibition: 27%
[16]
  inhibition: Dose-dependent effect
[17]
  Activity: 23%
[18]
  inhibition: < 65%
[19]
  inhibition: Active
[20]
  inhibition: Active
[21]
  inhibition: Active
[22]
  inhibition: Active
[23]
  inhibition: Active

From ChEMBL document CHEMBL3882390, “Method for selectively inhibiting ACAT1 in the treatment of neurodegenerative diseases” (2014)
